Data: patent US20240082313A1, “PHARMACEUTICAL COMPOSITIONS AND THEIR METHODS OF USE” (The Trustees of Indiana University, priority 2021, published 2024)
“Also recorded” adds a separate entry of the source.

Legend:
EO771 cells [1] = assay: In vivo extravasation assay; parameters: species or system mouse; conditions: EO771 cells via tail vein
Source text: (§1) Animal models. The experimental procedures using animals were approved by the Indiana University Animal Care and Use Committee and were complied with the Guiding Principles in the Care and Use of Animals endorsed by the American Physiological Society. Mice were housed five per cage and provided with mouse chow and water ad libitum. In the mouse model of mammary tumors, C57BL/6 female mice (˜8 weeks, Envigo RMS, Inc., Indianapolis, IN, USA) were randomly assigned into five groups (14 mice per group). The placebo groups received cells transfected with a negative control vector, and the negative control group received cells transfected with β-catenin overexpression vector. The three treatment groups received β-catenin overexpressing iTS CM, BML-treated cells, and BML-treated iTS CM. Each group received a subcutaneous injection of EO771 cells (3.0×10^5 cells in 50 μl PBS) to the mammary fat pad. For tibial osteolysis, C57BL/6 female mice (8 mice per group) received an intra-tibial injection of EO771 cells (2.5×10^5 cells in 20 μl PBS) to the right tibia. The treatment group received iTS cell-derived CM as an injection into the intraperitoneal cavity. The animals were sacrificed on day 18, and the weight of each tumor was measured. To evaluate the effects of CMs for tumor invasion, an in vivo extravasation assay was conducted. […]

[2] = tested on: human breast cancer and prostate cancer tissues; assay: Ex vivo tissue assay; assay type: cell-based; conditions: breast (ER-positive and -negative) and prostate cancer tissue
Protocol: Ex vivo tissue assay. The usage of human breast cancer and prostate cancer tissues was approved by the Indiana University Institutional Review Board. Two human breast cancer tissues (˜1 g each; estrogen receptor-positive and -negative) and prostate cancer tissue (˜1 g), received from Simon Cancer Center Tissue Procurement Core, were manually fragmented with a scalpel into small pieces (0.5˜0.8 mm in length). These pieces were grown in DMEM with 10% fetal bovine serum and antibiotics for a day. iTS cell-derived conditioned medium was then added for three additional days, and a change in the fragment size was determined. BML284 (10 μM) or β-catenin (40 ng/μ1) was applied to tissue fragments and CM was prepared as described above.

EO771 cells [3] = assay: Mouse model of mammary tumors; assay type: in vivo; conditions: EO771 cells in mammary fat pad
Source text: as §1

4T1.2 cells [4] = assay: Western blot analysis; assay type: cell-based, mouse; conditions: 4T1.2 cells, OAC2 treatment
Protocol: Western blot analysis. Cultured cells were lysed in a radio-immunoprecipitation assay (RIPA) buffer and proteins were fractionated by 10-15% SDS gels and electro-transferred to polyvinylidene difluoride (PVDF) transfer membranes (Millipore, Billerica, MA, USA). The membrane was incubated overnight with primary antibodies and then with secondary antibodies conjugated with horseradish peroxidase (Cell Signaling, Danvers, MA, USA). Antibodies against c-Myc, Oct4, Sox2, Klf4, Lrp5, Runx2, Snail, TGFβ, Eno1, Eef2, vinculin (Cell Signaling, Danvers, MA, USA), MMP9, NFATc1, cathepsin K (Santa Cruz, Dallas, TX, USA), TRAIL (Novus, Centennial, CO, USA), p53 (Invitrogen, Carlsbad, CA, USA), Hsp90ab1 (Abcam, Cambridge, UK), Kdm3a (Thermo-Fisher Scientific, Waltham, MA, USA) and β-actin as a control (Sigma, St. Louis, MO, USA) were employed. The level of proteins was determined using a SUPERSIGNAL™ west femto maximum sensitivity substrate (Thermo-Fisher Scientific, Waltham, MA, USA), and a luminescent image analyzer (LAS-3000, Fuji Film, Tokyo, Japan) was used to quantify signal intensities.

4T1.2 cells [5] = assay: Mouse model of a mammary tumor; assay type: in vivo; conditions: BALB/c mice, daily intraperitoneal injection of 10 mg/kg OAC2
4T1.2 cells [6] = assay: MTT-based viability; assay type: cell-based, mouse; conditions: 1 to 5 μM OAC2
[7] = tested on: EO771 mammary tumor cells; assay: EdU assay; assay type: cell-based, mouse; conditions: inhibitor applied with iTS CM
Protocol: EdU assays. Two thousand cells were seeded in 96-well plates on day 1, CM was added on day 2, and cellular proliferation was examined using a fluorescence-based cell proliferation kit (CLICK-IT™ EdU ALEXA FLUOR™ 488 Imaging Kit; Thermo-Fisher, Waltham, MA, USA). After fluorescent labeling, the number of fluorescently labeled cells were counted and the ratio to the total number of cells was determined.
EdU assay. Using a procedure previously reported, approximately 1,000 cells were seeded in 96-well plates on day 1. CM was added on day 2 and cellular proliferation was examined with a fluorescence-based cell proliferation kit (CLICK-IT™ EdU ALEXA FLUOR™ 488 Imaging Kit; Thermo-Fisher, Waltham, MA, USA) on day 4. After fluorescent labeling, the number of fluorescently labeled cells was counted and the ratio to the total number of cells was determined.

[8] = tested on: EO771 mammary tumor cells; assay: TRANSWELL invasion assay; assay type: cell-based, mouse; conditions: inhibitor applied with iTS CM
Protocol: Invasion assay. The invasion capacity of cancer cells was determined using a 24-well plate, TRANSWELL® chambers (Thermo Fisher Scientific, Waltham, MA, USA) with […] pore size and MATRIGEL™. Cell invasion was measured in TRANSWELL® chambers with a coating including MATRIGEL™ (100 μg/ml). The cells in 200 μL serum-free DMEM were placed on the upper chamber and 800 μL iTS CM was added in the lower chamber. After 24 h, the cells that had invaded the lower side of the membrane were stained with Crystal Violet. At least five randomly chosen images were taken under a microscope, and the average number of stained cells that represented the relative invasion was determined.

**Q.** Which “number of tumor cells in the lung” value (EO771 cells [1]) does the source give for `COc1cccc(-c2cc(NCc3ccc4c(c3)OCO4)nc(N)n2)c1` [BML284] here?
**A.** Increase

**Q.** What about the “size of cancer tissue fragments” value [2] of the same molecule?
**A.** modestly increased

**Q.** What about the tumor weight (EO771 cells [3]) of the same molecule?
**A.** Increase

**Q.** How did the Oct4 level (4T1.2 cells [4]) turn out when `O=C(Nc1ccc2[nH]ccc2c1)c1ccccc1` [OAC2] was run?
**A.** Elevation

**Q.** And the “size of mammary tumors / progression of tumors, direct administration” value (4T1.2 cells [5])?
**A.** did not alter; also recorded: No detectable change

**Q.** And the “MTT-based viability / proliferation of tumor cells, direct application” value (4T1.2 cells [6])?
**A.** did not alter; also recorded: No detectable change

**Q.** Which “inhibitory effect of β-catenin-overexpressing iTS CM on proliferation” value [7] does the source give for `Nc1cccc2c1C(=O)N(C1CCC(=O)NC1=O)C2=O` (centres unmarked) [Pomalidomide] here?
**A.** interfered with the inhibitory effect

**Q.** What about the “inhibitory effect of β-catenin-overexpressing iTS CM on invasion” value [8] of the same molecule?
**A.** interfered with the inhibitory effect
